Laboratory results: ChEMBL document CHEMBL1201862, “PubChem BioAssay data set” (2004)
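Method: 48-hour compound exposure of cells in 96-well plates, five concentrations, linear interpolation of endpoints. At the GI50, growth is halved.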 Activity calls are given as the source filed them. Rule as the data show it: active = GI50 up to about 1.1 µM and inactive = higher.

Key:
Test in all cases: NCI-60 cell line screen, 48 h
NCI-H23 = test system: NCI-H23
LXFL 529 = test system: LXFL 529
KM-20L2 = test system: KM-20L2
RXF 393 = test system: RXF 393
MCF7 = test system: MCF7
SNB-19 = test system: SNB-19
U-251 = test system: U-251
SNB-75 = test system: SNB-75
SR = test system: SR
SK-MEL-2 = test system: SK-MEL-2
OVCAR-8 = test system: OVCAR-8
NCI/ADR-RES = test system: NCI/ADR-RES
MDA-MB-435 = test system: MDA-MB-435
HL-60 = test system: HL-60
Malme-3M = test system: Malme-3M
SW-620 = test system: SW-620
Hs-578T = test system: Hs-578T
K562 = test system: K562
OVCAR-5 = test system: OVCAR-5
MDA-N = test system: MDA-N
A498 = test system: A498
HOP-62 = test system: HOP-62
LOX IMVI = test system: LOX IMVI
CCRF-CEM = test system: CCRF-CEM
DLD-1 = test system: DLD-1
NCI-H522 = test system: NCI-H522
786-0 = test system: 786-0
ACHN = test system: ACHN
UACC-257 = test system: UACC-257
DMS-114 = test system: DMS-114
OVCAR-4 = test system: OVCAR-4
SNB-78 = test system: SNB-78
UO-31 = test system: UO-31
HOP-18 = test system: HOP-18
CAKI-1 = test system: CAKI-1
XF498 = test system: XF498
SK-MEL-28 = test system: SK-MEL-28
IGROV-1 = test system: IGROV-1
SF-539 = test system: SF-539
KM12 = test system: KM12
HCT-116 = test system: HCT-116
HOP-92 = test system: HOP-92
TK-10 = test system: TK-10
COLO 205 = test system: COLO 205
HCT-15 = test system: HCT-15
SK-MEL-5 = test system: SK-MEL-5
HCC 2998 = test system: HCC 2998
RPMI-8226 = test system: RPMI-8226
HT-29 = test system: HT-29
T47D = test system: T47D
NCI-H226 = test system: NCI-H226
M14 = test system: M14
PC-3 = test system: PC-3
MDA-MB-231 = test system: MDA-MB-231
SF-268 = test system: SF-268
SF-295 = test system: SF-295
BT-549 = test system: BT-549
M19-MEL = test system: M19-MEL
SK-OV-3 = test system: SK-OV-3
MOLT-4 = test system: MOLT-4
A549 = test system: A549
SN12C = test system: SN12C
DMS-273 = test system: DMS-273
DU-145 = test system: DU-145
OVCAR-3 = test system: OVCAR-3
UACC-62 = test system: UACC-62
EKVX = test system: EKVX
NCI-H460 = test system: NCI-H460

## CC1=C(N2CC2)C(=O)c2nc3n(c2C1=O)CCC3OC(=O)CCl (stereo not drawn)
NCI-H23
  GI50: 35.8 nM (active)
LXFL 529
  GI50: 77.6 nM (active)
KM-20L2
  GI50: 131 nM (active)
RXF 393
  GI50: 33.8 nM (active)
MCF7
  GI50: < 10 nM (active)
SNB-19
  GI50: 53.8 nM (active)
U-251
  GI50: 25.2 nM (active)
SNB-75
  GI50: 22.1 nM (active)
SR
  GI50: 225 nM (active)
SK-MEL-2
  GI50: 47.8 nM (active)
OVCAR-8
  GI50: 45.2 nM (active)
NCI/ADR-RES
  GI50: 24.9 nM (active)
MDA-MB-435
  GI50: 29.8 nM (active)
HL-60
  GI50: 206 nM (active)
Malme-3M
  GI50: 45.3 nM (active)
SW-620
  GI50: 31.6 nM (active)
Hs-578T
  GI50: 27.9 nM (active)
K562
  GI50: 61.8 nM (active)
OVCAR-5
  GI50: 69.2 nM (active)
MDA-N
  GI50: 22.2 nM (active)
A498
  GI50: 61 nM (active)
HOP-62
  GI50: 53.2 nM (active)
LOX IMVI
  GI50: 35.4 nM (active)
CCRF-CEM
  GI50: 181 nM (active)
DLD-1
  GI50: 101 nM (active)
NCI-H522
  GI50: 27.4 nM (active)
786-0
  GI50: 52 nM (active)
ACHN
  GI50: 47 nM (active)
UACC-257
  GI50: 88.3 nM (active)
DMS-114
  GI50: 171 nM (active)
OVCAR-4
  GI50: 71.9 nM (active)
SNB-78
  GI50: 193 nM (active)
UO-31
  GI50: 48.3 nM (active)
HOP-18
  GI50: 43 nM (active)
CAKI-1
  GI50: 61.5 nM (active)
XF498
  GI50: 30.1 nM (active)
SK-MEL-28
  GI50: 55.5 nM (active)
IGROV-1
  GI50: 190 nM (active)
SF-539
  GI50: 56 nM (active)
KM12
  GI50: 37.7 nM (active)
HCT-116
  GI50: 41.8 nM (active)
HOP-92
  GI50: 3300 nM (inactive)
TK-10
  GI50: 130 nM (active)
COLO 205
  GI50: 128 nM (active)
HCT-15
  GI50: 19.4 nM
SK-MEL-5
  GI50: 42.8 nM (active)
HCC 2998
  GI50: 39.5 nM (active)
RPMI-8226
  GI50: 95.5 nM (active)
HT-29
  GI50: 90.2 nM (active)
T47D
  GI50: 1110 nM (active)
NCI-H226
  GI50: 64 nM (active)
M14
  GI50: 36.1 nM (active)
PC-3
  GI50: 21.4 nM (active)
MDA-MB-231
  GI50: 1910 nM (inactive)
SF-268
  GI50: 49.8 nM (active)
SF-295
  GI50: 37.3 nM (active)
BT-549
  GI50: 15.2 nM (active)
M19-MEL
  GI50: 81.7 nM (active)
SK-OV-3
  GI50: 70.5 nM (active)
MOLT-4
  GI50: 753 nM (active)
A549
  GI50: 59.3 nM (active)
SN12C
  GI50: 57.3 nM (active)
DMS-273
  GI50: 49 nM (active)
DU-145
  GI50: 21 nM (active)
OVCAR-3
  GI50: 77.1 nM (active)
UACC-62
  GI50: 35.6 nM (active)
EKVX
  GI50: 217 nM (active)
NCI-H460
  GI50: 18.3 nM (active)
